From US9676771B2, “Compounds for inhibiting drug-resistant strains of HIV-1 integrase” (priority 2013, dated 2017)
Where two headings read alike, the source gives them in different places.

Assays:
[1] = in vitro; assay type: cell-based, human; details: human, 50% reduction in the level of ATP in HOS cells
Protocol: Cellular Cytotoxicity Assay.
On the day of the screen, cells were treated with compounds at the appropriate concentration range chosen and incubated at 37° C. for 48 hrs. Cytotoxicity was measured by monitoring ATP levels via a luciferase reporter assay. Cells were lysed in 50 μL cell lysis buffer (PerkinElmer, Waltham, Mass.) and shaken at 700 rpm at room temperature for 5 mins After the addition of 50 μL of ATPlite buffer (PerkinElmer) directly onto the lysed cells and shaking at 700 rpm at room temperature for 5 mins, ATP levels were monitored by measuring luciferase activity using a microplate reader. Activity was normalized to cytotoxicity in the absence of target compounds. KaleidaGraph (Synergy Software, Reading, Pa.) was used to perform regression analysis on the data. CC50 values were determined from the fit model.

[2] = tested on: HIV-1 constructs containing mutant IN N155H; assay: microbe, parasite or virus in culture; assay type: cell-based; details: for EC50: Human immunodeficiency virus 1
From the text: (§1) Single-Round HIV-1 Infectivity Assay.
(§2) Human embryonyl kidney cell culture cell line 293 was acquired from the American type Culture Collection (ATCC).
(§3) The virus-containing supernatants were then harvested, clarified by low-speed centrifugation, filtrated, and diluted for preparation in infection assays. […] Activity was normalized to infectivity in the absence of target compounds. KaleidaGraph (Synergy Software, Reading, Pa.) was used to perform regression analysis on the data. EC50 values were determined from the fit model.
(§4) pNLNgoMIVR^−ΔEnv.LUC has been described previously (Zhao et al. 2008). The integrase codon reading frame was removed from pNLNgoMIVR^−ΔEnv LUC (between KpnI and SalI sites) and placed between the KpnI and SalI sites of pBluescript II KS+. Using that construct as the wild-type template, we prepared the following HIV-1 Integrase-resistant mutants via the QuikChange II XL (Stratagene, La Jolla, Calif.) site-directed mutagenesis protocol: H51Y, T66I, E92Q, G118R, Y143R, Q148H, Q148K, N155H, R263K, G140S+Q148H, G140A+Q148K, E138K+Q148K, and H51Y+R263K. The following sense with cognate antisense (not shown) oligonucleotides (Integrated DNA Technologies, Coralville, Iowa) were used in the mutagenesis: H51Y, 5′-[…]-3; T66I, 5′-[…]-3′; E92Q, 5′-[…]-3′; G118R, 5′-[…]-3′; E138K, 5′-[…]-3; G140A, 5′-[…]-3; G140S, 5′-[…]-3′; Y143R, 5′-[…]-3′; Q148H, 5′-[…]-3′; Q148K, 5′-[…]-3; N155H, 5′-[…]-3′; R263K 5′-[…]-3′. The double mutation G140S+Q148H was constructed by using the previously generated Q148H mutant and the appropriate oligonucleotide for the 2nd mutation, G140S. The double mutation G140A+Q148K was made by using the Q148K mutant and the appropriate oligonucleotide for the 2nd mutation, G140A. The double mutation E138K+Q148K was made by using the Q148K mutant and the appropriate oligonucleotide for the 2nd mutation, E138K. The double mutation H51Y+R263K was constructed by using the previously generated H51Y mutant and the appropriate oligonucleotides for the 2nd mutation, R263K. The DNA sequence of each construct was verified independently by DNA sequence determination. […] These DNA sequences were additionally checked independently by DNA sequence determination.

[3] = tested on: HIV-1 constructs containing mutant IN G140S-Q148H; assay: microbe, parasite or virus in culture; assay type: cell-based; details: for EC50: Human immunodeficiency virus 1
From the text: as §1, §2, §3, §4

[4] = tested on: HIV-1 constructs containing mutant IN Y143R; assay: microbe, parasite or virus in culture; assay type: cell-based; details: for EC50: Human immunodeficiency virus 1
From the text: as §1, §2, §3, §4

[5] = tested on: HIV-1 constructs containing wild-type IN; assay: microbe, parasite or virus in culture; assay type: cell-based; details: for EC50: Human immunodeficiency virus 1
From the text: as §1, §2, §3

[6] = biological target: HIV-1 integrase (Human immunodeficiency virus type 1 group M subtype B, UniProt P12497); assay: biochemical; assay type: biochemical
Protocol: In Vitro Integrase Assay.
Integrase reactions were carried out by adding drugs or an equivalent volume of 100% dimethyl sulfoxide (DMSO; used as the drug solvent) to a mixture of 20 nM DNA and 400 nM integrase in 50 mM morpholinepropanesulfonic acid (pH 7.2), 7.5 mM MgCl2, and 14 mM 2-mercaptoethanol. Reactions were performed at 37° C. for 2 h and quenched by the addition of an equal volume of loading buffer (formamide containing 1% sodium dodecyl sulfate, 0.25% bromophenol blue, and xylene cyanol). […] Dried gels were visualized using a Typhoon 8600 (GE Healthcare, Piscataway, N.J.). Densitometric analyses were performed using ImageQuant 5.1 software from GE Healthcare.

[7] = Table 8, read-out: EC50 (nM, IN mutants) N155H
[8] = Table 8, read-out: EC50 (nM, IN mutants) G140S/Q148H
[9] = Table 8, read-out: EC50 (nM, IN mutants) Y143R
[10] = Table 8, WT IN, read-out: EC50 (nM, WT)
[11] = Table 10, strand transfer, read-out: IC50 (nM, ST)
[12] = Table 7, 3′-processing, read-out: IC50 (μM) 3′-P
[13] = Table 7, strand transfer, read-out: IC50 (μM) ST
[14] = Table 3, read-out: EC50 (nM, IN Mutants) N155H
[15] = Table 3, G140S-Q148H double mutant, read-out: EC50 (nM, IN Mutants) SH
[16] = Table 3, read-out: EC50 (nM, IN Mutants) Y143R
[17] = Table 3, WT IN, read-out: EC50 (nM, WT)
[18] = Table 4, 3′-processing, read-out: IC50 (3^+-Processing)
[19] = Table 4, strand transfer, read-out: IC50 (Strand Transfer)
[20] = Table 1, 3′-processing, read-out: IC50 Values 3′-Processing
[21] = Table 1, strand transfer, read-out: IC50 Values Strand transfer

SMILES: CS(=O)(=O)CCc1cnc2c(c1)c(N)c(C(=O)NCc1ccc(F)cc1F)c(=O)n2O [XZ445, 4-Amino-N-(2,4-difluorobenzyl)-1-hydroxy-6-(2-(methylsulfonyl)ethyl)-2-oxo-1,2-dihydro-1,8-naphthyridine-3-carboxamide]
- CC50 ([1]; Table 8): 95400 nM
- EC50 [2, 7]: 32.8 nM
- EC50 [3, 8]: 118 nM
- EC50 [4, 9]: 27.5 nM
- EC50 [5, 10]: 27 nM
- IC50 [6, 11]: ~0.07 nM

SMILES: Nc1c(C(=O)NCc2ccc(F)cc2F)c(=O)n(O)c2ncc(CCS(=O)(=O)CCN3CCOCC3)cc12 [XZ447, 4-Amino-N-(2,4-difluorobenzyl)-1-hydroxy-6-(2-((2-morpholinoethyl)sulfonyl)ethyl)-2-oxo-1,2-dihydro-1,8-naphthyridine-3-carboxamide]
- CC50 ([1]; Table 8): > 250000 nM
- EC50 [2, 7]: 140 nM
- EC50 [3, 8]: 412 nM
- EC50 [4, 9]: 109 nM
- EC50 [5, 10]: 268 nM
- IC50 [6, 11]: 2.5 ± 1.3 nM

SMILES: O=C(NCc1ccc(F)cc1F)c1c(O)c2cc(CCCCCO)cnc2n(O)c1=O [XZ421, N-(2,4-Difluorobenzyl)-1,4-dihydroxy-6-(5-hydroxypentyl)-2-oxo-1,2-dihydro-1,8-naphthyridine-3-carboxamide]
- CC50 ([1]; Table 8): > 250000 nM
- EC50 [2, 7]: 31.6 nM
- EC50 [3, 8]: 28.5 nM
- EC50 [4, 9]: 8.3 nM
- EC50 [5, 10]: 23.7 nM
- IC50 [6, 12]: 14300 ± 1100 nM
- IC50 [6, 13]: 12.4 ± 2.6 nM

SMILES: O=C(NCc1ccc(F)cc1F)c1c(NC2CCCCCC2)c2cccnc2n(O)c1=O [XZ376, 4-(cycloheptylamino)-N-(2,4-difluorobenzyl)-1-hydroxy-2-oxo-1,2-dihydro-1,8-naphthyridine-3-carboxamide]
- CC50 ([1]; Table 3): 68700 ± 8700 nM
- EC50 [2, 14]: 13.7 ± 3.8 nM
- EC50 [3, 15]: 35 ± 11.7 nM
- EC50 [4, 16]: 6.6 ± 1.7 nM
- EC50 [5, 17]: 12.2 ± 2.9 nM
- Si (selectivity index) ([5]; Table 3, ratio of CC50 to EC50): 4,804
- IC50 [6, 18]: 13100 ± 1100 nM
- IC50 [6, 19]: 460 ± 180 nM

SMILES: O=C(NCc1ccc(F)c(Cl)c1)c1c(O)c2cccnc2n(O)c1=O [XZ365, N-(3-chloro-4-fluorobenzyl)-1,4-dihydroxy-2-oxo-1,2-dihydro-1,8-naphthyridine-3-carboxamide]
- CC50 ([1]; Table 2): 102000 nM
- CC50 ([1]; Table 3): 102000 ± 17800 nM
- Integrase Mutants N155H, fold-change in EC50 relative to WT [2]: 4 x
- EC50 [2, 14]: 148 ± 8.3 nM
- Integrase Mutants SH (G140S-Q148H), fold-change in EC50 relative to WT [3]: 14 x
- EC50 [3, 15]: 489 ± 61.8 nM
- Integrase Mutants Y143R, fold-change in EC50 relative to WT [4]: 2 x
- EC50 [4, 16]: 53.6 ± 9.2 nM
- SI [5]: 2,911
- Si (selectivity index) [5]: 2,920
- EC50 ([5]; Table 2, cells infected with lentiviral vector harboring WT IN, read-out: EC50): 35 nM
- EC50 [5, 17]: 34.9 ± 12.3 nM
- IC50 [6, 20]: 4700 ± 700 nM
- IC50 [6, 21]: 27 ± 6 nM

SMILES: O=C(NCc1ccc(F)cc1F)c1cc2cccnc2n(O)c1=O [XZ390, N-(2,4-difluorobenzyl)-1-hydroxy-2-oxo-1,2-dihydro-1,8-naphthyridine-3-carboxamide]
- CC50 ([1]; Table 3): > 250000 nM
- EC50 [2, 14]: 134 ± 23 nM
- EC50 [3, 15]: 438 ± 121 nM
- EC50 [4, 16]: 4.9 ± 0.77 nM
- Si (selectivity index) [5]: >25,000
- EC50 [5, 17]: 5.1 ± 1.9 nM
- IC50 [6, 20]: 6100 ± 800 nM
- IC50 [6, 21]: 41 ± 12 nM

SMILES: O=C(NCc1ccc(F)cc1)c1cc2cccnc2n(O)c1=O [XZ393, N-(4-fluorobenzyl)-1-hydroxy-2-oxo-1,2-dihydro-1,8-naphthyridine-3-carboxamide]
- CC50 ([1]; Table 3): > 250000 nM
- EC50 [2, 14]: 268 ± 89 nM
- EC50 [4, 16]: 24.1 ± 5.3 nM
- EC50 [5, 17]: 25.1 ± 9.4 nM
- Si (selectivity index) ([5]; Table 3, ratio of CC50 to EC50): >9,960
- IC50 [6, 20]: 8900 ± 1000 nM
- IC50 [6, 21]: 16 ± 3 nM

SMILES: O=C(NCc1ccc(F)c(Cl)c1)c1cc2cccnc2n(O)c1=O [XZ391, N-(3-chloro-4-fluorobenzyl)-1-hydroxy-2-oxo-1,2-dihydro-1,8-naphthyridine-3-carboxamide]
- CC50 ([1]; Table 3): > 250000 nM
- EC50 [2, 14]: 90.3 ± 5.6 nM
- EC50 [4, 16]: 33.9 ± 5.5 nM
- Si (selectivity index) [5]: >6,667
- EC50 [5, 17]: 37.5 ± 14.5 nM
- IC50 [6, 20]: 9400 ± 1500 nM
- IC50 [6, 21]: 14 ± 3 nM

SMILES: O=C(NCc1ccc(F)cc1F)c1c(Nc2ccccc2)c2cccnc2n(O)c1=O [XZ377, N-(2,4-difluorobenzyl)-1-hydroxy-2-oxo-4-(phenylamino)-1,2-dihydro-1,8-naphthyridine-3-carboxamide]
- CC50 ([1]; Table 3): > 250000 nM
- EC50 [2, 14]: 110 ± 17.2 nM
- EC50 [4, 16]: 24.9 ± 6.4 nM
- Si (selectivity index) [5]: >17,857
- EC50 [5, 17]: 14.2 ± 1.9 nM
- IC50 ([6]; read-out: IC50 (3^+-Processing)): 6900 ± 1100 nM
- IC50 ([6]; read-out: IC50 (Strand Transfer)): 18 ± 6 nM

SMILES: Nc1ccc(-c2ccc(Nc3c(C(=O)NCc4ccc(F)cc4F)c(=O)n(O)c4ncccc34)cc2)cc1 [XZ387, 4-((4′-amino-[1,1′-biphenyl]-4-yl)amino)-N-(2,4-difluorobenzyl)-1-hydroxy-2-oxo-1,2-dihydro-1,8-naphthyridine-3-carboxamide]
- CC50 ([1]; Table 3): > 250000 nM
- EC50 [2, 14]: 423 ± 168 nM
- EC50 [4, 16]: 102 ± 1.4 nM
- EC50 [5, 17]: 6.3 ± 2.4 nM
- Si (selectivity index) ([5]; Table 3, ratio of CC50 to EC50): >25,000
- IC50 [6, 18]: 80000 ± 11000 nM
- IC50 [6, 19]: 130 ± 20 nM

SMILES: COC(=O)CNc1c(C(=O)NCc2ccc(F)cc2F)c(=O)n(O)c2nc(OC)ccc12 [XZ407, methyl 2-((3-((2,4-difluorobenzyl)carbamoyl)-1-hydroxy-7-methoxy-2-oxo-1,2-dihydro-1,8-naphthyridin-4-yl)amino)acetate]
- CC50 ([1]; Table 5): 11700 ± 3100 nM
- EC50 ([2]; Table 5, read-out: EC50 (nM, IN Mutants) N155H): 31300 ± 320 nM
- EC50 ([4]; Table 5, read-out: EC50 (nM, IN Mutants) Y143R): 51.5 ± 12.6 nM
- EC50 ([5]; Table 5, WT IN, read-out: EC50 (nM, WT)): 32 ± 13 nM
- SI ([5]; Table 5, ratio of CC50 to EC50): 366
- IC50 [6, 18]: 20000 ± 2000 nM
- IC50 [6, 19]: 42 ± 5 nM

SMILES: COC(=O)[C@@H](C)Nc1c(C(=O)NCc2ccc(F)cc2F)c(=O)n(O)c2ncccc12 [XZ395, (R)-methyl 2-((3-((2,4-difluorobenzyl)carbamoyl)-1-hydroxy-2-oxo-1,2-dihydro-1,8-naphthyridin-4-yl)amino)propanoat]
- CC50 ([1]; Table 3): > 250000 nM
- EC50 [3, 15]: 89.3 ± 26.3 nM
- EC50 [4, 16]: 8.1 ± 1.7 nM
- EC50 [5, 17]: 11.3 ± 4.7 nM

SMILES: Nc1c(C(=O)NCc2ccc(F)cc2F)c(=O)n(O)c2ncc(CCCC3CCCCC3)cc12 [XZ428, 4-Amino-6-(3-cyclohexylpropyl)-N-(2,4-difluorobenzyl)-1-hydroxy-2-oxo-1,2-dihydro-1,8-naphthyridine-3-carboxamide]
- CC50 ([1]; Table 8): 27400 nM
- EC50 [2, 7]: 146 nM
- EC50 [4, 9]: 112 nM
- EC50 [5, 10]: 53.4 nM
- IC50 [6, 12]: 289000 ± 49000 nM
- IC50 [6, 13]: 3280 ± 468 nM
